Six molecules from article PMC8213730, “α-Helical peptidic scaffolds to target α-synuclein toxic species with nanomolar affinity” (Nature Communications, 2021) can be followed below.

For assay [1], the target named is T1, α-synuclein (αS) sonicated fibrils (Homo sapiens, UniProt P37840, N122C).
T1 construct: made in house; host or cells: Escherichia coli BL21 (DE3), pET21a
The assay is described as follows: dcFCCS binding of labelled peptide to αS sonicated fibrils. The protocol:
(§1) This variant was expressed and purified as described above but including 5 mM DTT in all purification steps. The protein was labeled with maleimide-modified Alexa Fluor 488 (AF488) (Invitrogen, Carlsbad, USA) for 15–20 h at 4 °C in the dark. After quenching the reaction with 10 mM DTT, free unreacted dye in the protein solution was subsequently separated using a P10 desalting column (GE Healthcare, Waukesha, USA), and the labeled protein solution was flash frozen with liquid nitrogen and stored at −80 °C. […] The same labeling and purification strategy were followed as for αS, although in this case the unreacted free dye was removed from the protein solution using a polyacrylamide desalting column (Thermo Fisher Scientific, Waltham, USA).
(§2) For the isolation of type B* oligomers purified αS was dialyzed against Milli-Q water and lyophilized for 48 h in aliquots of 6 mg. The aliquots were resuspended in 500 μL of PBS pH 7.4 to a final concentration of ca. 800 μM, filtered through 0.22 μm filters and incubated at 37 °C without agitation for 20–24 h.

The target in assay [2] is T2, α-synuclein (αS) type A* oligomers (Homo sapiens, UniProt P37840, N122C).
T2 construct: made in house; host or cells: Escherichia coli BL21 (DE3), pET21a
The assay is described as follows: dcFCCS binding of labelled peptide to αS type A* oligomers.

For assay [3], the target named is T3, α-synuclein (αS) type B* oligomers (Homo sapiens, UniProt P37840, N122C).
T3 construct: made in house; host or cells: Escherichia coli BL21 (DE3), pET21a
The assay is described as follows: dcFCCS binding of labelled peptide to αS type B* oligomers. The protocol: as §1, §2

Assay [4] has as its system α-synuclein (αS) amyloid aggregation. The assay is described as follows: αS amyloid aggregation kinetics by thioflavin-T fluorescence. It counts as biochemical. Particulars: 70 μM αS with 35, 14, 7 (3.5) μM peptide, PBS, 37 °C. The protocol:
αS amyloid aggregation was monitored in a 96 wells plate (non-treated) (Sarstedt, Germany) containing Teflon polyballs (1/8′′ diameter) (Polysciences Europe GmbH, Eppelheim, Germany) as described by Pujols and coworkers. Each well contained 150 μL solutions of 70 μM αS in PBS buffer with 40 μM thioflavin-T and the corresponding concentration of peptide. Plates were incubated at 37 °C, 100 rpm in an orbital culture shaker Max-Q 4000 (Thermo Fisher Scientific, Waltham, USA). Aggregation was analyzed every 2 h using a Victor3.0 Multilabel Reader Software-PerkinElmer 2030. (PerkinElmer, Waltham, USA). End-point measurements were performed after 32 h of incubation. Fluorescence intensity was measured in triplicate by exciting with a 430–450 nm filter and collecting the emission with a 480–510 nm filter. The resulting kinetics were normalized to the maximum fluorescence of the αS control (untreated).

The target of assay [5] is α-synuclein sonicated amyloid fibrils (AF488-labelled αS N122C) (UniProt P37840). The assay is described as follows: dual-color fluorescence cross-correlation spectroscopy (dcFCCS).
Assay [6] has as its target α-synuclein type B* oligomers (AF488-labelled αS N122C) (UniProt P37840). The assay is described as above.
Assay [7] deals with α-synuclein type A* oligomers (AF488-labelled αS N122C) (UniProt P37840). Described as above.
Assay [8] addresses α-synuclein N122C labelled with Alexa Fluor 488, monomer (UniProt P37840). The assay is described as follows: FCS molecular brightness; sonicated fibril sample; brightness of the aggregates compared with that of the αS monomer; average number of αS molecules per aggregate.

Consider `CC[C@H](C)[C@H](NC(=O)[C@H](CCCCN)NC(=O)[C@H](CCC(=O)O)NC(=O)[C@H](CCCCN)NC(=O)[C@H](CO)NC(=O)[C@H](CCCCN)NC(=O)[C@H](CCCNC(=N)N)NC(=O)[C@H](Cc1ccccc1)NC(=O)[C@H](Cc1ccccc1)NC(=O)[C@H](CC(=O)O)NC(=O)CNC(=O)[C@H](CC(C)C)NC(=O)[C@@H](N)CC(C)C)C(=O)NCC(=O)N[C@@H](CCCCN)C(=O)N[C@@H](CCC(=O)O)C(=O)N[C@@H](Cc1ccccc1)C(=O)N[C@@H](CCCCN)C(=O)N[C@@H](CCCNC(=N)N)C(=O)N[C@H](C(=O)N[C@H](C(=O)N[C@@H](CCC(N)=O)C(=O)N[C@@H](CCCNC(=N)N)C(=O)N[C@H](C(=O)N[C@@H](CCCCN)C(=O)N[C@@H](CC(=O)O)C(=O)N[C@@H](Cc1ccccc1)C(=O)N[C@@H](CC(C)C)C(=O)N[C@@H](CCCNC(=N)N)C(=O)N[C@@H](CC(N)=O)C(=O)N[C@@H](CC(C)C)C(=O)N[C@H](C(=O)N1CCC[C@H]1C(=O)N[C@@H](CCCNC(=N)N)C(=O)N[C@H](C(=O)N[C@@H](CCC(=O)O)C(=O)N[C@@H](CO)C(=O)O)[C@@H](C)O)C(C)C)[C@@H](C)CC)C(C)C)[C@@H](C)CC` [LL-37], for which the Kd (as a rule, the constant that tells how readily two partners part at equilibrium) in assay [1] was 5.14 nM; in assay [2], 1.92 nM; in assay [3], 3.62 nM. “LELLAKLLKLLKDLLGKLL [All_Leu19, variant of All-Leu devoid of the last three C-terminal residues]”: the “anti-aggregation (inhibitory) activity, Th-T titration” value in assay [4] is recorded as “retained the inhibitory activity”. Same read-out and setting: the entry for LELLEELLKLLEDLLKKLL [Anionic_scaffold] is “does not inhibit”; for “LELLEKLLKLLKDLLKKLL [Scaffold_19, only Leu, Asp, Glu and Lys]” it is “same anti-aggregation activity than the parental variant”. On to “LL-37 with a single engineered N-terminal cysteine labelled with Atto647N (peptide)”, for which the stoichiometry N (binding sites per aggregate) came to 181 in assay [5], 64 in assay [6] and 3 in assay [7]. “α-synuclein N122C labelled with Alexa Fluor 488, monomer (from UniProt P37840 1-140) (natural protein)” came in with a stoichiometry N (αS molecules per aggregate) in assay [8] of 107.
